Test results from patent US9296741B2, “Bromodomain inhibitors” (priority 2012, dated 2016).

Key:
[1] = Human liver microsome stability assay; assay type: in vitro ADME; details: both sexes, human, microsomes, pH 7.4
[2] = molecular target: human BRD4 first bromodomain (BDI_K57-E168) (Homo sapiens (Human), UniProt O60885); experiment: TR-FRET bromodomain binding assay, BRD4 first bromodomain
[3] = molecular target: human BRD4 second bromodomain (BDII_E352-M457) (Homo sapiens (Human), UniProt O60885); experiment: TR-FRET bromodomain binding assay, BRD4 second bromodomain
[4] = Mouse liver microsome stability assay; assay type: in vitro ADME; details: male, CD1, mouse, microsomes, pH 7.4
[5] = test system: breast cancer cell line MX-1; experiment: MX-1 cell line proliferation assay; assay type: cell-based, human; details: Homo sapiens, MX1, 72 h; MX-1 cells, 3-day proliferation, Cell Titer Glo; read-out: Cellular proliferation: EC50
[6] = Rat liver microsome stability assay; assay type: in vitro ADME; details: rat liver microsomes (male Sprague-Dawley), 0.5 μM test compound, 0.25 mg/mL microsomal protein, pH 7.4, 37° C.; read-out: Stability in rat liver microsomes (t1/2 in minutes)

half-life at 0.5 μM [1] [min]	Ki [2] [nM]	Ki [3] [nM]	half-life at 0.5 μM [4] [min]	EC50 [5] [nM]	half-life at 0.5 μM [6] [min]	Compound
2	129	32.6	2	479	4	CCS(=O)(=O)N(CC1CCCO1)c1ccc(Oc2ccc(F)cc2F)c(-c2cn(C)c(=O)c3[nH]ccc23)c1 (stereo not drawn) [Example 345, N-[4-(2,4-difluorophenoxy)-3-(6-methyl-7-oxo-6,7-dihydro-1H-pyrrolo[2,3-c]pyridin-4-yl)phenyl]-N-(tetrahydrofuran-2-ylmethyl)ethanesulfonamide]
32	2.2	1	10.7	65.2	3	CN(C)S(=O)(=O)Nc1ccc(Oc2ccccc2)c(-c2cn(C)c(=O)c3[nH]ccc23)c1 [Example 22, N,N-dimethyl-N′-[3-(6-methyl-7-oxo-6,7-dihydro-1H-pyrrolo[2,3-c]pyridin-4-yl)-4-phenoxyphenyl]sulfuric diamide]
8	40.9	71.1	9	103	5	CN(C)C1CCN(S(=O)(=O)c2ccc(OCC3CC3)c(-c3cn(C)c(=O)c4[nH]ccc34)c2)C1 (stereo not drawn) [Example 310, 4-[2-(cyclopropylmethoxy)-5-{[3-(dimethylamino)pyrrolidin-1-yl]sulfonyl}phenyl]-6-methyl-1,6-dihydro-7H-pyrrolo[2,3-c]pyridin-7-one]
> 120	8.5	4.2	> 120	35.4	> 120	CCS(=O)(=O)c1ccc(OCC2CC2(F)F)c(-c2cn(C)c(=O)c3[nH]c(C(=O)NCC(F)(F)F)cc23)c1 (stereo not drawn) [Example 327, 4-{2-[(2,2-difluorocyclopropyl)methoxy]-5-(ethylsulfonyl)phenyl}-6-methyl-7-oxo-N-(2,2,2-trifluoroethyl)-6,7-dihydro-1H-pyrrolo[2,3-c]pyridine-2-carboxamide]
7	27.9	30.7	3	223	15	Cn1cc(-c2cc(NS(=O)(=O)CCN3CCOCC3)ccc2Oc2ccc(F)cc2F)c2cc[nH]c2c1=O [Example 295, N-[4-(2,4-difluorophenoxy)-3-(6-methyl-7-oxo-6,7-dihydro-1H-pyrrolo[2,3-c]pyridin-4-yl)phenyl]-2-(morpholin-4-yl)ethanesulfonamide]
23	66	12.9	24	95.4	41	Cn1cc(-c2cc(S(=O)(=O)N3CCC(O)CC3)ccc2OCC2CC2)c2cc[nH]c2c1=O [Example 354, 4-{2-(cyclopropylmethoxy)-5-[(4-hydroxypiperidin-1-yl)sulfonyl]phenyl}-6-methyl-1,6-dihydro-7H-pyrrolo[2,3-c]pyridin-7-one]
54	7.6	32.2	25	120	102	CCCS(=O)(=O)Nc1ccc(Oc2ccc(C#N)cc2)c(-c2cn(C)c(=O)c3[nH]ccc23)c1 [Example 93, N-[4-(4-cyanophenoxy)-3-(6-methyl-7-oxo-6,7-dihydro-1H-pyrrolo[2,3-c]pyridin-4-yl)phenyl]propane-1-sulfonamide]
30	5.3	5.8	3	46	7	CC(=O)Nc1ccc(Oc2ccccc2)c(-c2cn(C)c(=O)c3[nH]ccc23)c1 [Example 6, N-[3-(6-methyl-7-oxo-6,7-dihydro-1H-pyrrolo[2,3-c]pyridin-4-yl)-4-phenoxyphenyl]acetamide]
53	23.2	73.7	87	254	6	Cn1cc(-c2cc(S(=O)(=O)C(F)(F)F)ccc2NCC2CC2)c2cc[nH]c2c1=O [Example 244, 4-{2-[(cyclopropylmethyl)amino]-5-[(trifluoromethyl)sulfonyl]phenyl}-6-methyl-1,6-dihydro-7H-pyrrolo[2,3-c]pyridin-7-one]
21	15.5	33.4	24	251	25	Cn1cc(-c2cc(C(=O)NCc3ccncc3)ccc2Oc2ccc(F)cc2F)c2cc[nH]c2c1=O [Example 121, 4-(2,4-difluorophenoxy)-3-(6-methyl-7-oxo-6,7-dihydro-1H-pyrrolo[2,3-c]pyridin-4-yl)-N-(pyridin-4-ylmethyl)benzamide]
41	67.1	26.9	55	55	38	CCCS(=O)(=O)Nc1ccc(Oc2ccc(F)cc2F)c(-c2cn(C)c(=O)c3[nH]ccc23)c1 [Example 115, N-[4-(2,4-difluorophenoxy)-3-(6-methyl-7-oxo-6,7-dihydro-1H-pyrrolo[2,3-c]pyridin-4-yl)phenyl]propane-1-sulfonamide]
> 120	5	2.2	27	104	111	Cn1cc(-c2cc(S(C)(=O)=O)ccc2Oc2ccc(CC(N)=O)cc2)c2cc[nH]c2c1=O [Example 165, 2-{4-[2-(6-methyl-7-oxo-6,7-dihydro-1H-pyrrolo[2,3-c]pyridin-4-yl)-4-(methylsulfonyl)phenoxy]phenyl}acetamide]
50	73.9	211	> 120	658	70	Cn1cc(-c2cc(S(C)(=O)=O)ccc2OCCN2CCOCC2)c2cc[nH]c2c1=O [Example 227, 6-methyl-4-{5-(methylsulfonyl)-2-[2-(morpholin-4-yl)ethoxy]phenyl}-1,6-dihydro-7H-pyrrolo[2,3-c]pyridin-7-one]
58	205	152	6	740	2	Cn1nc(-c2cc(N)ccc2Oc2ccc(F)cc2F)c2cc[nH]c2c1=O [Example 148, 4-[5-amino-2-(2,4-difluorophenoxy)phenyl]-6-methyl-1,6-dihydro-7H-pyrrolo[2,3-d]pyridazin-7-one]
56	14.1	19	9	67.5	32	CCS(=O)(=O)c1ccc(OC2CCN(C(=O)OC(C)(C)C)CC2)c(-c2cn(C)c(=O)c3[nH]ccc23)c1 [Example 312, tert-butyl 4-[4-(ethylsulfonyl)-2-(6-methyl-7-oxo-6,7-dihydro-1H-pyrrolo[2,3-c]pyridin-4-yl)phenoxy]piperidine-1-carboxylate]
47	16.2	10	25	110	28	CCCS(=O)(=O)Nc1ccc(Oc2c(F)cc(F)cc2F)c(-c2cn(C)c(=O)c3[nH]ccc23)c1 [Example 94, N-[3-(6-methyl-7-oxo-6,7-dihydro-1H-pyrrolo[2,3-c]pyridin-4-yl)-4-(2,4,6-trifluorophenoxy)phenyl]propane-1-sulfonamide]
35	21.5	8.1	46	206	88	Cn1cc(-c2cc(C(N)=O)ccc2Oc2ccc(F)cc2F)c2cc[nH]c2c1=O [Example 50, 4-(2,4-difluorophenoxy)-3-(6-methyl-7-oxo-6,7-dihydro-1H-pyrrolo[2,3-c]pyridin-4-yl)benzamide]
38	68.7	8.9	10	303	31	CCS(=O)(=O)N1CCN(C(=O)c2ccc(Oc3ccc(F)cc3F)c(-c3cn(C)c(=O)c4[nH]ccc34)c2)CC1 [Example 137, 4-[2-(2,4-difluorophenoxy)-5-{[4-(ethylsulfonyl)piperazin-1-yl]carbonyl}phenyl]-6-methyl-1,6-dihydro-7H-pyrrolo[2,3-c]pyridin-7-one]
> 120	4.3	4.2	> 120	15.8	> 120	CCS(=O)(=O)Nc1ccc(Oc2ccc(F)cc2F)c(-c2cn(C)c(=O)c3[nH]c(CO)cc23)c1 [Example 337, N-{4-(2,4-difluorophenoxy)-3-[2-(hydroxymethyl)-6-methyl-7-oxo-6,7-dihydro-1H-pyrrolo[2,3-c]pyridin-4-yl]phenyl}ethanesulfonamide]

Compound	half-life at 0.5 μM [1] [min]	Ki [2] [nM]	Ki [3] [nM]	half-life at 0.5 μM [4] [min]	EC50 [5] [nM]	half-life at 0.5 μM [6] [min]
CC(COC(C)(C)C)Oc1ccc(S(C)(=O)=O)cc1-c1cn(C)c(=O)c2[nH]ccc12 (stereo not drawn) [Example 229, 4-{2-[(1-tert-butoxypropan-2-yl)oxy]-5-(methylsulfonyl)phenyl}-6-methyl-1,6-dihydro-7H-pyrrolo[2,3-c]pyridin-7-one]	25	34.3	61.3	9	288	33
